“And” between values parts separate entries of the source, which are not always exact repeats. Equal entries are not always repeated. Where two headings read alike, the source gives them in different places.

The results in this text go back to patent US20130244875A1, “METHODS AND COMPOSITIONS FOR IMPROVING PLANT HEALTH” (priority 2006, published 2013).

Data set [1] has as its system DMOxRR2Y soybean stack. Briefly: 2,4-D postemergence injury on DMOxRR2Y soybean. It counts as in vivo. The settings on record: V3, 3, 30, 60, 120 and 280 g ae/ha, all rates, 20 days after treatment. An excerpt:
A rate titration of 2,4-D (2,4-D amine, Helena Chemical Co., Memphis, Tenn.) was applied as postemergence (POST) treatment at V3 growth state of breeding stack of DMO soybean and RR2Y (RR2Y is MON89788 event, U.S. application Ser. No. 11/441,914) transgenic soybean. 2,4-D was applied as a postemergence (POST) treatment (V3) at 5 application rates on DMOxRR2Y soybean stack and compared for total crop injury across all application rates. The POST herbicide application rates used for this trial were 3 g ae/ha (acid equivalent/hectare), 30 g ae/ha, 60 g ae/ha, 120 g ae/ha and 280 g ae/ha of 2,4-D. The treated plants were rated for 2,4-D symptoms 20 days after treatment.

Data set [2] has as its system haploid seeds of corn genotype 01DKD2. Briefly: Haploid corn seed pretreatment before colchicine doubling. Type of data set: in vivo. The settings on record: seeds imbibed 24 hours before 0.0625% colchicine; for Doubling efficiency: water 5; for 10 inch pot survival: water 53; for Percent Pollination: water 81; for Percent germination: water 90. On the procedure: The use of these chemicals during the doubling process is toxic and stressful to the treated plant or seed. […] To determine quantify the effect of acetyl salicylic acid (ASA) and salicylic acid (SA) on plant health of haploid plants subjected to colchicine treatments, haploid seeds of corn genotype 01DKD2 were treated with 100-500 microMolar (μM) of DCSA, ASA, or SA or combinations thereof by imbibing the seeds in a solution of the compound for 24 hours before colchicine treatment of the seeds. A solution of 0.0625% colchicine (Sigma Aldrich, St. Louis, Mo. Cat#C3915) and 1.5% DMSO (Sigma Aldrich, St. Louis, Mo. Cat#D8779) was used to treat the seeds and the seeds incubated in the solution at 25° C. for 5 days in the dark. The germination rate, survival rate of the treated plants, fertility, and doubling rate were measured.

Data set [3] concerns soybean plants. Briefly: Copper injury on soybeans. The settings on record: 1000 ppm copper sulfate foliar spray alone; soybean V1-2; 5 days after treatment. It counts as in vivo. The source says:
Plants are sensitive to heavy metal toxicity. Heavy metals are present in the environment or sometimes applied to plants for pest control. Symptoms of plant injury following treatment with a heavy metal compound, for example, a compound containing copper, are necrotic leaf spotting and flecking with more severe injury resulting in larger reddish brown spots, […] necrosis and/or necrotic puckered leaves.

Data set [4] concerns Verticillium (isolate DPL). The data set can be described thus: Verticillium wilt protection in cotton, isolate DPL. It counts as in vivo, Verticillium dahliae. The settings on record: cotton ST6611, DCSA 1 lb/A, glyphosate 0.75 lb/A, 24 hours before inoculation. The source says: (§1) DCSA was unexpectedly found to provide protection to cotton plants against Verticillium dahliae, causal agent of cotton wilt disease (Table 6). Cotton plants of the variety ST6611, BOLLGARD 2, ROUNDUP READY FLEX, were inoculated with a moderate isolate (DPL) or a virulent isolate (King) of Verticillium by a seedling dipping method. Seedlings at the first true leaf stage were taken out from the pots, one inch of roots were cut off, seedlings were dipped in a spore slurry for one minute, and then transplanted back in the pots. These strains were isolated and provided by Dr. Terry Wheeler (Texas A&M University, TX USA). DCSA was applied at the rate of 1 lb/A and glyphosate (ROUNDUP WEATHERMAX, Monsanto Company, St. Louis, Mo.) at the rate of 0.75 lb/A 24 hours before inoculation. Protection against Verticillium was measured on a disease severity scale of 1-9:1 being healthy and 9 being dead because of disease, and also was measured as the number of plants that survived out of 10 inoculated plants.

Data set [5] has as its system Verticillium (isolate King). Briefly: Verticillium wilt protection in cotton, isolate King. The settings on record: cotton ST6611, DCSA 1 lb/A, glyphosate 0.75 lb/A, 24 hours before inoculation. It counts as in vivo, Verticillium dahliae.
Description: as §1

Data set [6] concerns soybean plants. The settings on record: for % injury: N3001 non-transgenic soybean, 4 DAT, ANOVA mean; for % injury at 5 DAT Paraquat alone control 100 g ae/ha: paraquat alone 100 g ae/ha. The procedure:
For this example, the plants were grown as described in the above example. Transgenic and non transgenic soybean plants carrying the DMO gene in their genome were either treated with Paraquat (Gramoxone®; Syngenta) to create oxidative stress or with dicamba followed by Paraquat at V3 stage. The dicamba rate was 1 lb/Acre or 1120 g ae/ha. […] Plants were then evaluated for paraquat injury by visually assessing injury at a particular day after treatment (DAT) for injury on a scale of 0 to 100 percent relative to untreated control plants, with zero representing “no” injury and 100% representing “complete” injury or death. Data were collected and analyzed using suitable statistical methods.
In another experiment, the effect of externally applied DCSA was tested for its benefit in protecting soybean plants from oxidative stress injury caused by Paraquat. Different amounts of DCSA were applied 24 hrs before applying Paraquat to test any correlation between the amount of DCSA applied and the extent of protection obtained from oxidative stress measured in terms of reduction in % injury as described above. Different levels of dicamba were also applied separately to test the same hypothesis.

The subject of data set [7] is cotton plants. The data set can be described thus: Paraquat (Gramoxone) oxidative stress injury in cotton. Type of data set: in vivo. The settings on record: 2 DAT, DCSA (if given) 1 lb/Acre 24 hours before. The procedure:
Four different cotton cultivars as indicated in Table 3 were grown in 4-inch pots for two weeks. These cotton plants were either sprayed with DCSA (BASF) at the 1 lb/A rate, or unsprayed (no DCSA application, as control). Experimental plants (treated with DCSA and untreated) were sprayed with Paraquat (Gramoxone®; Syngenta) at 30 gm/ha, 70 gm/ha, and 100 gm/ha rates, 24 hours after the application of DCSA, to simulate oxidative stress. […] The same experiment was repeated at two different growth stages of cotton (2 nodes stage and 5 nodes stage).

For the compound `CNC.O=C(O)COc1ccc(Cl)cc1Cl` [2,4-D], the “POST 2,4-D injury compared to treated non-transgenic control A3525” value in data set [1] was “significantly (ANOVA test) lower”.

For the compound `CC(=O)Oc1ccccc1C(=O)O` [ASA, acetyl salicylic acid], in data set [2] (100 μM (each)), the Doubling efficiency worked out at 0, the “10 inch pot survival” value is recorded as 62, the “Percent Pollination” value is on record as 86% and the Percent germination was 87%. Moreover, in data set [2] (250 μM (each)), the Doubling efficiency was determined as 8, the “10 inch pot survival” value worked out at 60, the “Percent Pollination” value is reported as 78% and the Percent germination was found to be 85%. Besides, in data set [2] (500 μM (each)), the Doubling efficiency amounted to 5, the “10 inch pot survival” value was found to be 35, the “Percent Pollination” value is 71% and the Percent germination is given as 68%.

In the case of `O=S(=O)([O-])[O-].[Cu+2]` [Cu, copper sulfate], the Percent injury in data set [3] is 45% and 45.0a Percent.

For the compound `O=C(O)CNCP(=O)(O)O` [Glyphosate, N-phosphonomethylglycine, reference compound], the “Severity rating (1-9)” value in data set [4] (1 healthy, 9 dead, inoculated check 5) is recorded as 2; in data set [5] (1 healthy, 9 dead, inoculated check 9) it was 3.5. The “Plant survival rating (out of 10)” value in data set [4] (inoculated check 8) and in data set [5] (inoculated check 0) was 10 each time.

As for `C[n+]1ccc(-c2cc[n+](C)cc2)cc1` [Paraquat], the “% injury” value amounted to 32.5% in data set [6] (paraquat 30 g ae/ha at V-3), 50.8% in data set [6] (paraquat 70 g ae/ha at V-3) and 75% in data set [6] (paraquat 200 g ae/ha at V-3). Moreover, the injury rate result in data set [6] (transgenic plants contacted with Paraquat alone (Table 2)) was “about 75%”. For the same compound, the “% injury at 5 DAT Paraquat alone control 100 g ae/ha” value turned out to be 75.83% in data set [6] (transgenic soybean event 462-1-21) and 77.50% in data set [6] (transgenic soybean event 469-13-19). In addition, the Percentage injury in data set [7] (cotton ST3273B2RF, Gramoxone 30 g a.i./ha) was 35%; in data set [7] (cotton ST3273B2RF, Gramoxone 70 g a.i./ha), 50%; in data set [7] (cotton ST3273B2RF, Gramoxone 100 g a.i./ha), 50%; in data set [7] (cotton ST4575BR, Gramoxone 30 g a.i./ha) it was 37.5%; in data set [7] (cotton ST4575BR, Gramoxone 70 g a.i./ha) it was 42.5%; in data set [7] (cotton ST4575BR, Gramoxone 100 g a.i./ha) it was 65%. For the same compound, the Percentage injury is recorded as 31.5% in data set [7] (cotton ST4646B2RF, Gramoxone 30 g a.i./ha); 42.5% in data set [7] (cotton ST4646B2RF, Gramoxone 70 g a.i./ha); 70% in data set [7] (cotton ST4646B2RF, Gramoxone 100 g a.i./ha); 42.5% in data set [7] (cotton ST6622RF, Gramoxone 30 g a.i./ha); 50% in data set [7] (cotton ST6622RF, Gramoxone 70 g a.i./ha); 70% in data set [7] (cotton ST6622RF, Gramoxone 100 g a.i./ha).

In the case of `O=C(O)c1ccccc1O` [SA, salicylic acid], in data set [2] (100 μM (each)), the Doubling efficiency amounted to 2, the “10 inch pot survival” value is on record as 48, the “Percent Pollination” value amounted to 83% and the Percent germination came to 80%. For the same compound, in data set [2] (250 μM (each)), the Doubling efficiency came out at 3, the “10 inch pot survival” value worked out at 58, the “Percent Pollination” value is reported as 85% and the Percent germination is 85%. For the same compound, in data set [2] (500 μM (each)), the Doubling efficiency worked out at 3, the “10 inch pot survival” value was 77, the “Percent Pollination” value came out at 89% and the Percent germination stood at 85%.
